Data from US20200383844A1, “ABSORBENT ARTICLE” (Kao Corporation, priority 2017, published 2020).

Legend:
[1] = Description: (§1) Definitions of “spreading coefficient to the liquid having surface tension of 50 mN/m” and “water solubility” of the liquid film cleavage agent, as specified in the first aspect and the second aspect, and measuring methods of surface tension (γw) of a liquid film (liquid having surface tension of 50 mN/m), surface tension (γo) of a liquid film cleavage agent, interfacial tension (γwo) between the liquid film and the liquid film cleavage agent, and water solubility of the liquid film cleavage agent are as described in the paragraphs {0015} to {0022} in WO 2016/098796.
Hereinafter, the present invention will be described more in detail with reference to Examples, but the present invention is not limited thereto. In addition, both terms “part” and “%” in the Examples are based on mass unless otherwise noted. […] In addition, a sign “-” in the following Tables means that neither an agent shown in a name of an item is used, nor the result has an applicable value in the item, or the like. Moreover, a leftward arrow “←” means that the content is the same as described in an adjacent column indicated by the arrow.
(§2) On the occasion, as a “liquid having surface tension of 50 mN/m,” a solution was used, in which the solution was prepared by adding, to 100 g of deionized water, 3.75 μL of POE sorbitan monolaurate (trade name “RHEODOL Super TW-L120,” manufactured by Kao Corporation) being a nonionic surface active substance by a micropipette (trade name “ACURA 825,” manufactured by Socorex Isba SA), and adjusting the surface tension to 50±1 mN/m. Moreover, the water solubility was measured by adding the agent for every 0.0001 g.

[2] = Surface tension of liquid film cleavage agent; type: physicochemical; conditions: 25° C., RH 65%
[3] = Spreading coefficient of liquid film cleavage agent; type: physicochemical; conditions: 25° C., RH 65%
Description: as §1
(§3) Hereinafter, the present invention will be described more in detail with reference to Examples, but the present invention is not limited thereto. In addition, both terms “part” and “%” in the Examples are based on mass unless otherwise noted. […]
as §2

[4] = Interfacial tension of liquid film cleavage agent; type: physicochemical; conditions: 25° C., RH 65%
Description: as §1, §3, §2

[5] = Viscosity of liquid film cleavage agent; type: physicochemical; conditions: 25° C., RH 65%, average of three
Experimental: First, 40 g of a liquid film cleavage agent is prepared. […] This operation is repeated three times, and an average value is adopted as the viscosity. In addition, when the liquid film cleavage agent is solid, the liquid film cleavage agent is heated to a temperature of a melting point of the liquid film cleavage agent plus 5° C. to induce phase transition into liquid, and the measurement is performed with keeping the temperature conditions.
As a result of measuring viscosity by the method shown in (Method for measuring viscosity of liquid film cleavage agent) described above, the viscosity of the liquid film cleavage agent was 163 cps.

Row | Water solubility [1] | Surface tension [2] [mN/m] | Spreading coefficient to liquid having surface tension of 50 mN/m [3] [mN/m] | Interfacial tension to liquid having surface tension of 50 mN/m [4] [mN/m] | Viscosity [5] [cps] | Substance
1 | ← g | 31.8 | 5.4 | 12.8 | 129 | POP alkyl ether [POP(15) alkyl ether]
2 | 0.025 or less g |  |  |  |  | POP-modified dimethyl silicone [POP(12)-modified dimethyl silicone]
3 | 0.025 or less g |  |  |  |  | PPG
4 | ← g |  |  |  |  | epoxy-modified dimethyl silicone
